Assays:
Format in all cases: cell-based
human gut microbiome [1] = test: Short term colonic simulation (48 hours colonic fermentation): overall fermentative activity, pH and gas production; settings: pre-digested products, fecal inoculum of a single human donor, triplicate; 0-6 hours; doses of Table 1
Source text: (§1) The test products used in these experiments included a red acerola fruit powder containing 20% vitamin C and a green acerola fruit powder containing 34% vitamin C provided by Naturex-Givaudan. Commercial synthetic ascorbic acid and a 55:45 mixture of fructose and glucose served as relevant control groups. The test products contained a fraction of digestible compounds (sugar, for e.g.) that, in vivo, are absorbed in the small intestine following conversion to small molecules by digestive enzymes. […] Stock solutions of test products and controls were prepared and exposed to conditions simulating oral, gastric, and small intestinal passage. Typically, a dialysis procedure is employed to simulate absorption of small molecules in the small intestine, but this step was omitted for these test products, as the dialysis procedure would lead to losses of compounds in acerola (polyphenols) that would reach the colon in vivo and exert an effect on the microbiome. […] Changes in ammonium production were assessed by sampling at the start of incubation and after 48 hours. Analysis of microbial community structure was performed at the start of the incubation and after 48 hours. pH was measured in each reactor at each time point as a single repetition. Gas production was measured in the headspace of the fermentation vessels as a single repetition.

human gut microbiome [2] = test: Short term colonic simulation: microbial metabolite (SCFA) production by capillary gas chromatography-FID; settings: 48 hours colonic fermentation; acerola 3.5 g/L, sugar control 1.75 g/L, ascorbic acid 1.67 g/L; FIG. 1
Source text: as §1, with “microbiome. A 48 hours colonic fermentation was performed in the presence of test compounds and relevant controls to determine the effect of the test products on the gut microbiome.” for “microbiome.”, “[…] Quantitative analysis” for “Analysis of microbial community structure was performed at the start”, “SCFA” for “incubation and after 48 hours. pH”, “done by means of capillary gas chromatography, coupled with” for “measured in each reactor at each time point as”, “flame ionization detector (FID). […]” for “single repetition. Gas production was measured in the headspace of the fermentation vessels as a single repetition.”

human gut microbiome [3] = test: Short term colonic simulation: changes in community composition by 16S-targeted Illumina sequencing (heat map, LEfSe, beta diversity); settings: after 48 hours; ascorbic acid 1.67 g/L; comparator not stated
Source text: The test products used in these experiments included a red acerola fruit powder containing 20% vitamin C and a green acerola fruit powder containing 34% vitamin C provided by Naturex-Givaudan. Commercial synthetic ascorbic acid and a 55:45 mixture of fructose and glucose served as relevant control groups. The test products contained a fraction of digestible compounds (sugar, for e.g.) that, in vivo, are absorbed in the small intestine following conversion to small molecules by digestive enzymes. […] Stock solutions of test products and controls were prepared and exposed to conditions simulating oral, gastric, and small intestinal passage. […]
Sampling was performed periodically with a syringe through a rubber septum. […] Changes in ammonium production were assessed by sampling at the start of incubation and after 48 hours. […]
The methodology applied involves primers that span 2 hypervariable regions (V3-V4) of the 16S rRNA gene, i.e. primers 341F-785R described in Bekliz et al (Bekliz, M., Pramateftaki, P., Battin, T. J. et al. Viral diversity is linked to bacterial community composition in alpine stream biofilms. ISME COMMUN. 2, 27 (2022). https://doi.org/10.1038/s43705-022-00112-9). […] Read assembly and cleanup was largely derived from the MiSeq SOP described by the Schloss lab. […]

`O=C1O[C@H]([C@@H](O)CO)C(O)=C1O` [Ascorbic acid, ascorbic acid] was tested, and the pH shift (human gut microbiome [1]) was “failed to produce a significant shift in pH”, the propionate production (human gut microbiome [2]) was “Each product, except ascorbic acid, stimulated propionate production” and the “strongest enrichments (LEfSe), OTUs of the genera/families” value (human gut microbiome [3]) was “Bacteroides, Lachnoclostridium, GCA-900066575, Anaerostipes, Agathobacter, Oscillibacter, Alistipes, Lachnospiraceae, Flavonifractor, Coprococcus and Blautia”.

From US20260191923A1, “COMPOSITIONS” (GIVAUDAN SA, priority 2022, published 2026)
